Experiments:
CD8+ T cells [1] = experiment: Peptide-HLA-A2 dimer staining of CTL stimulated with peptide-pulsed DC; format: cell-based, human; details: for peptide dimer staining relative to background, in words: summary of Table 7
Protocol: (§1) HLA-A2 positive PBMC isolated by leukapheresis from two healthy human subjects were obtained from HemaCare Corporation (Van Nuys, Calif.). The PBMC from each subject were used to prepare CD8+ T cells and autologous dendritic cells for stimulation with immunogenic peptides. Following stimulation, the T cells were subjected to functional assays.
(§2) CD8+ T cells were prepared from each subject's PBMC by positive selection using CD8 MicroBeads (Miltenyi Biotec, Bergisch Gladbach, Germany), according to the manufacturer's instructions.
(§3) Autologous DC were prepared from adherent PBMC (2×10^6 cells/ml) cultured for 5 days in the presence of 500 IU/ml granulocyte macrophage colony-stimulating factor (Leucomax; Schering-Plough, Kenilworth, N.J.) and 500 IU/ml IL-4 (R&D Systems, Minneapolis, Minn.) in complete medium [RPMI 1640 supplemented with 10% heat-inactivated human AB serum, […] L-glutamine (Invitrogen) and antibiotics]. On day 5, DC maturation was induced by addition of 50 ng/ml TNF-α. On day 7, the mature DC were collected and pulsed with 20 μg/ml peptide for 4 hours at 20° C. Peptide-pulsed DC not used immediately were frozen for later use.
The peptide pulsed matured DC were diluted to 3×10^5 cells/mL in CTL complete medium and irradiated at 2800 Rads. The initial in vitro stimulation was performed at a DC:T cell ratio of 1:5 by plating 100 μL/well of each batch of DC into a 96 well round bottom tissue culture plate (3×10^4 DC/well). One plate was prepared per peptide. To all wells, 100 μL of the CD8+ enriched T cell population was added at 1.5×10^6 cells/mL was added, resulting in a final concentration of 1.5×10^5 T-cells/well. Plates were incubated at 37° C., 5% carbon dioxide, and high humidity.
On days 7 and 14, cryopreserved peptide pulsed mature DC were thawed and used to restimulate the T-cells. Cryopreserved samples of each peptide pulsed DC batch were removed from liquid nitrogen and thawed rapidly in a 37° C. water-bath. Samples were diluted at least 1:10 with AIM V medium (Invitrogen, Carlsbard, Calif.). Samples were washed twice by centrifugation at 400 g for 7 minutes, and representative samples were evaluated for cell concentration and viability. Each DC batch was diluted to 3×10^5 cells/mL in CTL complete medium containing 20 U/mL IL-2, 10 ng/mL IL-7, and 2 μg/mL of the specific peptide, and the DC were irradiated with 2800 Rads. In vitro stimulation plates were removed carefully from the incubator and 90 μL of supernatant (no cells) were removed from each well. To each well, 100 μL of the appropriate DC batch was added. Plates were then incubated further at 37° C., 5% carbon dioxide, and high humidity.
After the second in vitro stimulation, the plates were checked daily for T-cell proliferation. When required, plates were split (one plate will become two plates) to avoid overgrowth of the CTL. […] The plates were mixed to ensure a homogenous population, then 90 μL of each CTL well was transferred into a new 96 well U bottomed plate. When splitting was performed within 3 days of the last in vitro stimulation, 100 μL of CTL complete medium containing 20 U/mL IL-2 and 10 ng/mL IL-7 was added. If splitting was performed later than 3 days from the last in vitro stimulation, 100 μL of complete CTL medium containing 40 U/mL IL-2 and 20 ng/mL IL-7 was added. Split plates were returned to the incubator at 37° C., 5% carbon dioxide, and high humidity.
On day 21, the T cells were stimulated a fourth time. The process described for in vitro stimulations 2-3 was repeated with the exception that IL-2 was replaced with 25 ng/mL IL-15.
Stimulated CTL were assayed for staining using peptide-HLA-A2 dimers. Cells were collected 19 days after the third stimulation (subject 1) or 6 days after the fourth stimulation (subjects 1 and 2).

CD8+ T cells [2] = experiment: IFN-γ ELISPOT of CTL stimulated with peptide-pulsed DC; format: cell-based, human; set-up: key to ELISPOT IFN-γ spots vs negative control: ++: Wells that clearly had more spots than the negative control were indicated as positive
Protocol: as §1, §2
as §3, with “use. […]” for “use.”
On days 7 and 14, cryopreserved peptide pulsed mature DC were thawed and used to restimulate the T-cells. […] Samples were washed twice by centrifugation at 400 g for 7 minutes, and representative samples were evaluated for cell concentration and viability. […]

HLA-A*0201 = HLA-A*0201 (Homo sapiens, UniProt P04439, D140Y/D185E/D98H/E176V/E277Q/G131W/G231S/I119V/I121R/I166T/I218V/L300P/L318F/N151K/N90K/P208A/P217A/Q86G/Q94H/R138H/R169H/T345S); experiment: REVEAL MHC binding assay, HLA-A*0201; details: HLA-A*0201 binding, relative to positive control peptide
Description: Fifty-five of the candidate peptides were assembled with HLA-A*0201 and analyzed for MHC binding to determine their level of incorporation into MHC molecules using the REVEAL™ MHC binding assay (ProImmune Ltd., Oxford, UK). Binding to MHC molecules was compared to that of two known T-cell epitopes: an intermediate control peptide and a positive control peptide with weak and very strong binding properties, respectively. Eleven peptides bound to HLA-A*0201 as well or better than the positive control, as indicated on Table 5.

Substance	percentages of cells that stained positive (above background) for both dimer and CD8 (CD8+ T cells [1]; Subject 1, 3rd stim)	percentages of cells that stained positive (above background) for both dimer and CD8 (CD8+ T cells [1]; Subject 1, 4th stim)	percentages of cells that stained positive (above background) for both dimer and CD8 (CD8+ T cells [1]; Subject 2, 4th stim)	peptide dimer staining relative to background, in words (CD8+ T cells [1])	ELISPOT IFN-γ spots vs negative control (CD8+ T cells [2]; Subject 2, 4th stim)	ELISPOT result in words (CD8+ T cells [2]; subject 3 (so in the source))	% Positive Control (HLA-A*0201)
11 (YLQWIEFSI; listed as Homo sapiens) [compound 11]	38.64%	20.74%	19.39%	stained strongly above background	++	clearly positive	
19 (SQLNSNPEL; listed as Homo sapiens) [compound 19]							163.06%
20 (GLLERVTRI; listed as Homo sapiens) [compound 20]	0.27%	−0.41%	−0.32%	indistinguishable from background			
21 (FLLPALIFA; listed as Homo sapiens) [compound 21]	20.43%	13.23%	21.18%	stained strongly above background			
28 (ILSAFSVYV; listed as Homo sapiens) [compound 28]	4.15%	0.12%	14.08%	stained moderately above background			

Source: patent US8604167B2, “CD133 epitopes” (ImmunoCellular Therapeutics, Ltd., priority 2009, dated 2013)
